Data from patent US9747412B2, “Method for identifying activation of transferases” (HVIVO SERVICES LIMITED, priority 2010, dated 2017).

Test system: epithelial cell line MCF10A
Assay: Global Kinase Activity Profiling (GKAP) of lysates of cells treated with EGF and kinase inhibitors
Format: cell-based, human
Details: for Decrease in the number of EGF-dependent kinase activities detected: MCF10A cells pre-treated 1 h with inhibitor (5 μM LY294002 or 10 μM U0126) before 100 ng/ml EGF for 10 min

Q: Which “Decrease in the number of EGF-dependent kinase activities detected” value does the source give for `O=c1cc(N2CCOCC2)oc2c(-c3ccccc3)cccc12` [LY92004] here?
A: The value was “about 30%”.

Q: Which “Decrease in the number of EGF-dependent kinase activities detected” value does the source give for `N#CC(=C(/N)Sc1ccccc1N)/C(C#N)=C(\N)Sc1ccccc1N` [U0126] here?
A: Its value is “about 30%”.

Q: “EGF: recombinant human EGF (Peprotech AF-100-15), growth factor activating kinase pathways downstream of its receptor (NSDSECPLSHDGYCLHDGVCMYIEALDKYACNCVVGYIGERCQYRDLKWWELR; UniProt P01133 971-1023, looked up)” was tested. Which “Number of kinase reactions that increased as a function of treatment” value (treatment with EGF (summary statement)) did it give?
A: Its value is > 300.
